Measured values as given in US9510596B2, “Binary pesticidal and fungicidal mixtures” (BAYER CROPSCIENCE AG, priority 2012, dated 2016).

Test system: Phakopsora pachyrhizi
Assay: Phakopsora test (soybean)/seed treatment
Type: in vivo
Conditions: greenhouse, infected leaf area per plant
Method: The test is performed under greenhouse conditions.
Soy bean seeds, treated with the active compound or compound combinations, solved in N-methyl-2-pyrrolidon and diluted with water to the desired dosages, were sown in 6*6 cm pots containing 4 cm of a 1:1 mix of steamed field soil and sand.
The plants were grown at 22° C. and 90% relative humidity in a greenhouse chamber. 21 days old plants were inoculated with an aqueous spore suspension of the causal agent of soybean rust (Phakopsora pachyrhizi) and stay for 24 h without light in an incubation cabinet at approximately 24° C. and a relative atmospheric humidity of 95%. The plants remain in the incubation cabinet at approximately 24° C. and a relative atmospheric humidity of approximately 80% and a day/night interval of 12 h.
Assessment consisted of evaluation of infected leaf area per plant. 0% means an efficacy which corresponds to that of the control, while an efficacy of 100% means that no disease is observed.

## CNC(=O)c1cc(C#N)cc(C)c1NC(=O)c1cc(Br)nn1-c1ncccc1Cl [2.2, Cyantraniliprole, reference compound]
Application rate 0.5 ppm a.i.
  Efficacy in % found*: 0%

## CNC(=O)c1cc(C#N)cc(C)c1NC(=O)c1cc(Cn2nnc(C(F)(F)F)n2)nn1-c1ncccc1Cl [2.5, 1-(3-chloropyridin-2-yl)-N-[4-cyano-2-methyl-6-(methylcarbamoyl)phenyl]-3-{[5-(trifluoromethyl)-2H-tetrazol-2-yl]methyl}-1H-pyrazole-5-carboxamide]
Application rate 2.5 ppm a.i.
  Efficacy in % found*: 13%

## CC1CC(C)(C)c2cccc(NC(=O)c3cn(C)nc3C(F)F)c21 (stereo not drawn) [(I-1), 3-(difluoromethyl)-1-methyl-N-(1,1,3-trimethyl-2,3-dihydro-1H-inden-4-yl)-1H-pyrazole-4-carboxamide]
Application rate 25 ppm a.i., 0% = control, 100% = no disease
  Efficacy in % found*: 25%
